Data from a melting point compilation (Tetko et al.; mined from patent text by program, amines drawn as free bases though some values may be those of a salt).

melting point [°C]	SMILES
111 to 112	COC(=O)c1c(-c2cc3ccccc3o2)ccc2ccccc12
174	CN(C)C=Nc1sc(C=Nc2ccccc2)c(Cl)c1C#N
83 to 84	CCOC(=O)c1c(CC)nn2c(-c3ccccc3)ccnc12
139 to 141	NC(=NCCc1ccccn1)Nc1ccc(Br)cn1
184 to 186	C[C@@H]1Cc2ccsc2[C@H](c2ccccc2)N1CCNS(=O)(=O)c1ccc(N)cc1 (relative stereo)
240 to 241	O=C(O)C1=Cc2cc(F)cc(Cl)c2OC1C(F)(F)F (stereo not given)
186	COc1ccccc1Sc1c(Cl)ncnc1NS(=O)(=O)c1ccc(C(C)(C)C)cc1
108	O=C(C=Cc1ccccc1)CC(=O)c1ccccc1
126 to 128	N#Cc1ccc(Oc2ccc(CC(=O)O)cc2)cc1
69 to 71	CC(=Cc1ccc(Oc2ccc(Cl)cc2)cc1)[N+](=O)[O-]
181 to 182	N#CC1CCc2c([nH]c3ccc(Cl)cc23)C1 (stereo not given)
96	CC(=O)NC(=O)C(SC(C)=O)c1ccccc1 (stereo not given)
134	N#CCc1nc2c(s1)Cc1cc(Cl)ccc1-2
130	COc1ccc2ccc(NC(=O)c3cccc(N(C)C)c3)nc2n1
186 to 188	Nc1nc2ccccc2c2c1ncn2CCOCCCc1ccccc1C(=O)O
193 to 195	Cc1cc(Cl)ccc1N1C(=O)c2ccc(Cl)cc2C1=O
141 to 142	COC(=O)C(=C1SC=CS1)S(=O)(=O)C(C)C
118	COc1ccccc1NC(C#N)c1c(Cl)cccc1Cl (stereo not given)
144	N#Cc1ccc(NC(=S)NCc2ccccn2)cc1
70 to 71	CN[C@@H]1COc2cc(Cl)ccc2O1
> 270	CC(C)(C)N1CCN(c2cc3c(cc2F)c(=O)c(C(=O)O)cn3C(C)(C)C)CC1
130 to 131	CCOC(=O)C1=C(C)Nc2ccnc(OC(C)C)c2C1c1cccc(C(F)(F)F)c1 (stereo not given)
96 to 97	CCCCCCN1C(=O)NC(=O)C1O (stereo not given)
177 to 179	CC(C)(C)c1cc(C=C2SC(NCO)=NC2=O)cc(C(C)(C)C)c1O
93 to 94	CON=CC1=CCCN(C(=O)OCC(=O)N2CCCCC2)C1
68.3	CN(C)c1cccc2c1OC1(CC1)C2=O

melting point [°C]	SMILES
263	Cc1ccc(N2C(=O)C(O)=C(C(=O)c3ccc(C(C)C)cc3)C2c2ccc(Cn3cccn3)cc2)nn1 (stereo not given)
65 to 67	CCCCCCCCCCCCCCC(=O)C(=O)N[C@@H](CCCC)C(=O)NCC(=O)OC
142	CC(C)(C)c1ccc([PH](=O)c2ccc(C(C)(C)C)cc2)cc1
238 to 239	Cc1nc(-c2ccccc2C(F)(F)F)c2c(n1)N(c1ccc(C(C)C)cc1Br)CC(=O)N2
106	OCc1ccc(OCc2ccccc2)c2c1OCCO2
185 to 186	Cc1oc(-c2ccccc2)nc1COc1ccc(COc2ccc(O)cc2CC#N)cc1
31 to 33	C#CCNC(=O)C(F)(F)F
147 to 148	O=C(NCC(=O)c1cccs1)c1ccc(F)cc1
108	O=S(=O)(CCOc1ccc(Cl)cc1)c1ccc(Cl)cc1
158 to 161	CNC(=O)c1ccc(Cl)cc1
91.7	COc1ccc(Sc2ccc(C=[N+]([O-])C(C)(C)C)o2)cc1
80	CC(=O)c1ccc(OCCCCCCOc2ccccc2)o1
255 to 257	COc1ccn2c(C)c(CCc3ccc4nc(O)oc4c3)nc2c1
179 to 180	O=C1N(N2CCOCC2)c2ccccc2C1(Cc1ccccc1)Cc1ccccc1
73 to 74	CCOC(=O)c1cc2c(F)ccc(Br)c2s1
170 to 172	COCCc1nc2cnc3cc(OCc4ccccc4)ccc3c2n1CC(C)(C)O
254 to 256	CC1NC(=O)NN=C1c1ccc(NCc2cccnc2)cc1 (stereo not given)
103 to 105	COc1cc(C(C)=O)ccc1OCCCN1CCC(c2noc3ccc(F)cc23)CC1
121 to 123	CCOC(=O)c1cnc2c(c(C)nn2-c2ccccn2)c1Cl
107 to 109	COc1cccc(-c2cn3c(n2)CCc2ccccc2-3)c1
111 to 113	CC(C)(C)COc1c(NCCCBr)c(=O)c1=O
156 to 158	CC(C#Cc1ccc(F)cc1)N(O)C(N)=O (stereo not given)
222	CC(C)NS(=O)(=O)c1cccc(NC(=O)c2cnn3c(C(F)(F)F)cc(-c4ccc(C(F)(F)F)cc4)nc23)c1
141 to 144	COC(C)c1cc(N2C(=O)C3=C(CCCC3)C2=O)c(F)cc1Cl (stereo not given)
139 to 141	CC1CC(=O)c2cc([N+](=O)[O-])c(F)cc2O1 (stereo not given)
102 to 103	O=C(CC(=O)C(F)F)c1ccc(N2CCOCC2)cc1

melting point [°C]	SMILES
71 to 72	CCCCCCCC(=O)NCc1ccsc1
128 to 129	CCCCCCCCCCCCCCCCCC(=O)Oc1nc2c(N)ncnc2n1Cc1ccccc1
124 to 126	COC(=O)Cc1ccc(CNC(=O)C2Cc3ccccc3N2S(=O)(=O)c2ccc(-c3cccc(C(F)(F)F)c3)cc2)c(Cl)c1 (stereo not given)
136 to 137	COc1cc(N)c(Cl)cc1C(=O)NCC1CCC(C)N1Cc1ccccc1 (stereo not given)
266 to 268	CC(C)(C)c1ccc(-c2nnc(-c3ccc(C(=O)O)cc3N)o2)cc1
115 to 117	CCCCCCN1CCN(Cc2ccc([N+](=O)[O-])cc2)C(=O)C1=O
72 to 75	COc1ccc(-c2nccs2)cc1OC1CCCC1
109 to 113	CCCC(O)c1ccc(C(=O)O)cc1 (stereo not given)
163 to 165	O=C(O)c1cc(Cl)c(Oc2ccc(O)cc2)c(Cl)c1
110 to 114	CCOC(=O)C(=CNc1csnn1)C(=O)c1cc(F)c(Cl)nc1Cl
190 to 191	OC(CCC1CCNCC1)c1cc(C2CCCCC2)nc2ccccc12 (stereo not given)
100	Cc1cccc(NC(=O)NCC(=O)N(c2ccccc2)C(C(=O)OC(C)(C)C)c2cccc(Cl)c2)c1 (racemic)
154 to 155	O=S(=O)(c1ccccc1)c1ccc(Cl)cn1
247 to 248	CC(C)(C(=O)NC(Nc1c(Nc2cccnc2)c(=O)c1=O)C(C)(C)C)c1ccccc1 (stereo not given)
163 to 164	COc1cc(O)c2c(=O)c(OC)c(-c3ccc(OC(=O)C(C)(C)C)c(OC)c3)oc2c1
> 300	CCOC(=O)C1=Cc2cc(Cl)cc(-c3nc4ccccc4[nH]3)c2OC1C(F)(F)F (stereo not given)
129	Cc1ccc(S(=O)(=O)N2[C@@H](CCO)CC[C@H]2c2ccc(F)cc2)cc1 (racemic)
256 to 257	O=c1[nH]c(=Cc2ccco2)c(=O)[nH]c1=Cc1ccc(OCc2ccccc2)cn1
74	CCCCN1C(=O)CN(c2ccccc2)C1=O
149 to 152	N#Cc1ccc(CCC(=O)c2ccc(C#N)cc2)cc1
210	Cn1cc(Cl)cnc1=O
161 to 162	COCc1cnc(C(=O)O)c(C(=O)O)c1
144 to 146	O=C1COCc2cc(Br)ccc21
104	O=CC=Cc1cnc(-c2ccccc2)s1
109 to 110	COc1cccc2cc(C(=O)Nc3ccc(-n4nc(C(F)(F)F)cc4C(F)(F)F)cc3)oc12
262 to 263	COc1ccc(Nc2nc(-c3ccccc3)c(-c3nc4ccccc4c(=O)n3-c3ccc(Cl)cc3)s2)cc1

melting point [°C]	SMILES
136 to 138	CCc1nnc(Cc2c(Cl)cncc2Cl)c2ccc(OC)cc12
201 to 204	CSc1ncc(C(C)c2cccnc2)c(=O)[nH]1 (stereo not given)
78 to 80	CCN(CC)C(=S)SCc1ccccc1CSC(=S)N(CC)CC
138 to 140	Cn1cnc2c1c(=O)n(CC(O)CN1CCN(C(c3ccc(F)cc3)c3ccc(F)cc3)CC1)c(=O)n2C (stereo not given)
198	COc1c(C2CCN(CCCCNC(=O)c3ccc(-c4ccc(Cl)cc4)c(OCC(N)=O)c3)CC2)ccc2c1CCCC2
103	COc1cc(O)c(C(=O)C=Cc2ccc(C)o2)c(OC)c1
107 to 109	O=C(O)CCc1ccccc1Cc1ccc(Cl)cc1
80 to 82	O=C1OCc2c(Cl)cccc21
219 to 220	Cc1nc(-n2ccc(OCc3ccccc3)cc2=O)sc1C(=O)NCc1ccccc1
120 to 123	CN(C)C(c1ccccc1)c1cc(C(C)(C)C)cc(C(C)(C)C)c1O (stereo not given)
288 to 290	Oc1ccc2cc(-c3nc4ccc(O)cc4o3)ccc2c1
47 to 50	Nc1c(F)cc(Cl)c2c1CCCO2
90 to 93	CCOC(=O)Cc1cc(C)c(C(=O)c2ccc(C)cc2)n1C
126 to 128	CSc1sc(S(C)(=O)=O)cc1C#N
172 to 173	CCc1c(C(=O)c2cc(C)cc(C)c2)n(C/C=C/CO)c(=O)[nH]c1=O
173 to 174	C1=C(CCc2ccccc2)CCN(Cc2n[nH]c3c2CCc2ccccc2-3)C1
202 to 204	CN(C)C=Cc1[nH]c(=O)ccc1C(=O)c1ccccc1
149 to 163	COc1ccc(C(=CC(=O)N2CCOCC2)c2ccc([N+](=O)[O-])cc2)cc1OC
134 to 135	CCOC(=O)C1=C(C)NC(C)=C(C(=O)OCC)C1c1c(Cl)cccc1Cl
87 to 88	COc1cccc(CC(=O)O)c1OCCCc1cn(-c2ccc(Cl)cn2)nc1C(C)(C)C
195 to 197	NS(=O)(=O)c1ccc(-n2nc(NC(=O)Nc3cccc(C(F)(F)F)c3)cc2-c2ccccc2)cc1
245 to 246	C[C@H](Cn1cnnn1)n1cnc2cc3c(=O)n(C4CC4)nnc3cc2c1=O
200 to 201	CC(C)Cn1c(=O)n(C)c(=O)c2c(Sc3ccc([N+](=O)[O-])cn3)c(Cc3cccc4ccccc34)sc21
290 to 292	Nc1c([N+](=O)[O-])sc2c(Cl)cc(Cl)cc12

SMILES	melting point [°C]
CN(C)C(=O)Oc1ccc(CO)cc1	76
S=C1CN=C(c2ccccc2Cl)c2cc(CCc3ccc(Cl)cc3)sc2N1	201 to 203
CC(C)(C)OC(=O)C(=[N+]=[N-])C(=O)CO	35
